Measured values: ChEMBL document CHEMBL1201862, “PubChem BioAssay data set” (2004)
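Tested at 5 concentrations; 48 h exposure; 96-well plates; endpoints linearly interpolated, else capped at highest concentration. GI50: concentration for 50% inhibition of growth.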 Activity calls are given as the source filed them. Rule as the data show it: active = GI50 up to about 1.1 µM and inactive = higher.

How the values were obtained:
Assay in all cases: NCI-60 cell line screen, 48 h
NCI-H522 = tested on: NCI-H522
IGROV-1 = tested on: IGROV-1
HOP-62 = tested on: HOP-62
HCC 2998 = tested on: HCC 2998
SK-MEL-28 = tested on: SK-MEL-28
TK-10 = tested on: TK-10
LOX IMVI = tested on: LOX IMVI
EKVX = tested on: EKVX
HCT-116 = tested on: HCT-116
NCI-H460 = tested on: NCI-H460
RXF 393 = tested on: RXF 393
CCRF-CEM = tested on: CCRF-CEM
UACC-257 = tested on: UACC-257
UO-31 = tested on: UO-31
CAKI-1 = tested on: CAKI-1
OVCAR-5 = tested on: OVCAR-5
NCI-H226 = tested on: NCI-H226

Measured: GI50

O=S(=O)(C1=CC(S(=O)(=O)c2ccccc2)COC1)c1ccccc1 (stereo not given)
inactive: NCI-H522 > 100 µM | IGROV-1 > 100 µM | HOP-62 > 100 µM | HCC 2998 > 100 µM | SK-MEL-28 > 100 µM | TK-10 > 100 µM | LOX IMVI > 100 µM | EKVX > 100 µM | HCT-116 > 100 µM | NCI-H460 > 100 µM | RXF 393 > 100 µM | CCRF-CEM > 100 µM | UACC-257 > 100 µM | UO-31 > 100 µM | CAKI-1 > 100 µM

NNC(=O)N/N=C1\CN(c2ccc(Cl)cc2Cl)C(=O)C(=O)C1c1nc2ccccc2o1 (stereo not given)
inactive: OVCAR-5 > 100 µM | NCI-H522 > 100 µM | IGROV-1 > 100 µM | HOP-62 > 100 µM | HCC 2998 > 100 µM | SK-MEL-28 > 100 µM | NCI-H226 > 100 µM | EKVX > 100 µM | HCT-116 > 100 µM | NCI-H460 > 100 µM | CCRF-CEM > 100 µM | UACC-257 > 100 µM | UO-31 92.5 µM | CAKI-1 > 100 µM

COc1cc(C2=NN(C)C(c3ccc([N+](=O)[O-])o3)C2)cc(OC)c1OC (stereo not given)
inactive: OVCAR-5 > 100 µM | NCI-H522 43.7 µM | IGROV-1 > 100 µM | HOP-62 > 100 µM | HCC 2998 > 100 µM | SK-MEL-28 79.8 µM | NCI-H226 > 100 µM | TK-10 > 100 µM | LOX IMVI 69 µM | EKVX > 100 µM | HCT-116 48.8 µM | NCI-H460 41.9 µM | CCRF-CEM 22.2 µM | UACC-257 > 100 µM | UO-31 72.1 µM | CAKI-1 > 100 µM

CS(=O)(=O)OCCn1cnc2nc(NC(=O)c3ccccc3)[nH]c(=O)c21
inactive: OVCAR-5 > 100 µM | NCI-H522 > 100 µM | IGROV-1 > 100 µM | HOP-62 > 100 µM | SK-MEL-28 > 100 µM | NCI-H226 > 100 µM | TK-10 > 100 µM | LOX IMVI > 100 µM | EKVX > 100 µM | HCT-116 > 100 µM | NCI-H460 > 100 µM | RXF 393 > 100 µM | CCRF-CEM > 100 µM | UACC-257 > 100 µM | UO-31 > 100 µM | CAKI-1 > 100 µM

CCOC(=O)C1C(=O)c2ccccc2CN1Cc1ccccc1 (stereo not given)
inactive: OVCAR-5 > 100 µM | NCI-H522 > 100 µM | IGROV-1 > 100 µM | HOP-62 > 100 µM | HCC 2998 > 100 µM | SK-MEL-28 > 100 µM | NCI-H226 > 100 µM | TK-10 > 100 µM | LOX IMVI > 100 µM | EKVX > 100 µM | HCT-116 > 100 µM | NCI-H460 > 100 µM | CCRF-CEM > 100 µM | UACC-257 > 100 µM | UO-31 > 100 µM | CAKI-1 > 100 µM

COc1ccc2c3c(c(C(=O)O)oc13)C(CCC(=O)O)CC2 (stereo not given)
inactive: IGROV-1 > 100 µM | HOP-62 > 100 µM | HCC 2998 > 100 µM | SK-MEL-28 > 100 µM | TK-10 > 100 µM | LOX IMVI > 100 µM | EKVX > 100 µM | HCT-116 > 100 µM | NCI-H460 > 100 µM | RXF 393 > 100 µM | UACC-257 > 100 µM | CAKI-1 > 100 µM

COc1ccc(NC(=O)CC(=O)NN2C(=O)/C(=C/c3ccc(N(CCC#N)CCC#N)cc3C)N=C2/C=C\c2ccccc2)cc1
inactive: OVCAR-5 > 100 µM | NCI-H522 > 100 µM | IGROV-1 > 100 µM | HOP-62 > 100 µM | SK-MEL-28 > 100 µM | NCI-H226 > 100 µM | TK-10 > 100 µM | LOX IMVI > 100 µM | HCT-116 > 100 µM | NCI-H460 > 100 µM | CCRF-CEM > 100 µM | UACC-257 > 100 µM | UO-31 > 100 µM | CAKI-1 > 100 µM

CCOC(=O)C(=O)Nc1cc(Cl)c(Cl)cc1Cl
inactive: OVCAR-5 > 100 µM | NCI-H522 > 100 µM | IGROV-1 > 100 µM | HOP-62 > 100 µM | HCC 2998 > 100 µM | SK-MEL-28 > 100 µM | NCI-H226 > 100 µM | TK-10 > 100 µM | LOX IMVI > 100 µM | EKVX > 100 µM | HCT-116 > 100 µM | NCI-H460 > 100 µM | RXF 393 > 100 µM | UACC-257 > 100 µM | UO-31 > 100 µM | CAKI-1 > 100 µM

Cc1cnc2ccc(C)c([N+](=O)[O-])c2c1NCCCN(C)C
inactive: OVCAR-5 > 100 µM | NCI-H522 > 100 µM | HOP-62 > 100 µM | HCC 2998 > 100 µM | SK-MEL-28 > 100 µM | NCI-H226 50 µM | TK-10 > 100 µM | LOX IMVI > 100 µM | EKVX > 100 µM | HCT-116 74.8 µM | NCI-H460 > 100 µM | CCRF-CEM > 100 µM | UACC-257 > 100 µM | UO-31 27.2 µM | CAKI-1 > 100 µM

Oc1cc(-c2cccs2)nc2cc3c(cc12)OCO3
inactive: OVCAR-5 7.98 µM | NCI-H522 2.05 µM | IGROV-1 3.37 µM | HOP-62 3.96 µM | HCC 2998 7.13 µM | SK-MEL-28 9.33 µM | NCI-H226 4.32 µM | TK-10 21.3 µM | LOX IMVI 4.92 µM | EKVX > 62.7 µM | HCT-116 4.14 µM | NCI-H460 3.24 µM | RXF 393 1.9 µM | CCRF-CEM 3.66 µM | UACC-257 3.72 µM | UO-31 4.69 µM

CC(C)C12Cc3c(ccc4ccccc34)OC1(C)Oc1ccc3ccccc3c1C2 (stereo not given)
inactive: OVCAR-5 > 100 µM | NCI-H522 63.7 µM | IGROV-1 > 100 µM | NCI-H226 > 100 µM | TK-10 > 100 µM | LOX IMVI > 100 µM | EKVX 10.6 µM | HCT-116 > 100 µM | NCI-H460 > 100 µM | RXF 393 > 100 µM | CCRF-CEM > 100 µM | UO-31 > 100 µM | CAKI-1 > 100 µM

CCCCCCCCSC(=O)NCCCC
inactive: OVCAR-5 48.4 µM | NCI-H522 27.1 µM | IGROV-1 > 100 µM | SK-MEL-28 29 µM | TK-10 46.7 µM | LOX IMVI 19.9 µM | EKVX 27.8 µM | NCI-H460 34 µM | RXF 393 21.5 µM | CCRF-CEM 28.2 µM | UO-31 19.6 µM | CAKI-1 36.1 µM

CCCCCCCCCCCCCC(=O)OC1CC(=O)OC1CO (stereo not given)
inactive: OVCAR-5 > 100 µM | IGROV-1 41 µM | HOP-62 > 100 µM | HCC 2998 60.3 µM | TK-10 > 100 µM | LOX IMVI 28.2 µM | EKVX > 100 µM | HCT-116 27.4 µM | NCI-H460 34.2 µM | RXF 393 > 100 µM | CCRF-CEM 25.5 µM | UACC-257 > 100 µM | UO-31 32.8 µM | CAKI-1 81.1 µM

Cc1cccc(C)c1N1C(=O)C(=O)C(c2nc3ccccc3s2)/C(=N/c2cccc3c(=O)[nH][nH]c(=O)c23)C1=O (stereo not given)
inactive: OVCAR-5 > 100 µM | IGROV-1 > 100 µM | HOP-62 > 100 µM | HCC 2998 > 100 µM | SK-MEL-28 > 100 µM | NCI-H226 > 100 µM | TK-10 > 100 µM | LOX IMVI > 100 µM | EKVX > 100 µM | HCT-116 > 100 µM | NCI-H460 > 100 µM | CCRF-CEM 45.7 µM | UACC-257 > 100 µM | UO-31 > 100 µM | CAKI-1 > 100 µM

CCc1cc(Cc2cc(CC)c(NC(=O)C(=O)Cc3ccccn3)c(CC)c2Cl)c(Cl)c(CC)c1NC(=O)C(=O)Cc1ccccn1
inactive: OVCAR-5 > 100 µM | IGROV-1 > 100 µM | HOP-62 > 100 µM | HCC 2998 > 100 µM | SK-MEL-28 > 100 µM | NCI-H226 > 100 µM | TK-10 > 100 µM | LOX IMVI 41.8 µM | EKVX > 100 µM | HCT-116 > 100 µM | NCI-H460 > 100 µM | CCRF-CEM > 100 µM | UACC-257 40.4 µM | UO-31 > 100 µM | CAKI-1 > 100 µM

COc1ccc(OC)c(NC(=O)CCC/C(CC(=O)c2ccc(O)c(OC)c2)=N\Nc2nnc(C)n2N)c1
inactive: OVCAR-5 > 100 µM | NCI-H522 > 100 µM | IGROV-1 > 100 µM | HOP-62 > 100 µM | HCC 2998 > 100 µM | SK-MEL-28 > 100 µM | NCI-H226 > 100 µM | TK-10 > 100 µM | LOX IMVI > 100 µM | EKVX > 100 µM | NCI-H460 > 100 µM | CCRF-CEM > 100 µM | UACC-257 > 100 µM | UO-31 > 100 µM | CAKI-1 > 100 µM

Fc1ccc(C2SCc3nc4ccccc4n32)cc1 (stereo not given)
inactive: OVCAR-5 21.4 µM | NCI-H522 14.1 µM | IGROV-1 47.9 µM | HOP-62 35.8 µM | SK-MEL-28 23.6 µM | NCI-H226 37.4 µM | TK-10 24.4 µM | LOX IMVI 49.2 µM | EKVX 58.1 µM | HCT-116 32.4 µM | NCI-H460 34.4 µM | RXF 393 17.2 µM | CCRF-CEM 42.1 µM | UO-31 23 µM | CAKI-1 36.8 µM

O=C(O)/C(Cl)=C(\Cl)C(=O)Nc1ccccc1
inactive: OVCAR-5 > 100 µM | IGROV-1 > 100 µM | HOP-62 > 100 µM | HCC 2998 > 100 µM | SK-MEL-28 > 100 µM | NCI-H226 > 100 µM | TK-10 > 100 µM | LOX IMVI > 100 µM | EKVX > 100 µM | HCT-116 > 100 µM | NCI-H460 > 100 µM | RXF 393 > 100 µM | CCRF-CEM 69.3 µM | UACC-257 > 100 µM | UO-31 > 100 µM | CAKI-1 > 100 µM
